Molecular target: T1, Glutamate carboxypeptidase 2 [44-750] (Homo sapiens, UniProt Q04609)
T1 construct: 44-750
Test: Determination of Inhibition Concentration Values (IC50)
Settings: pH 7.4; 37 °C
Experimental: The inhibition concentration values of GCPII were determined using the radioenzymatic assay with [3H] NAAG (radiolabeled on the terminal glutamate). The enzyme was preincubated in the presence of increasing concentrations of inhibitors in reaction buffer. The reaction was initiated by adding the substrate to the reaction mixtures. After 20 min, the reaction was terminated, and the glutamate was separated from the reaction mixture by ion-exchange chromatography and quantified by liquid scintillation. Duplicate reactions were carried out for each experimental point. The IC50 values were calculated from plots of Vi/V0 (ratio of individual reaction rates to the rate of an uninhibited reaction) versus inhibitor concentration using the GraFit program (version 5.0.4, Erithacus Software Limited).

T1 sequence (Q04609 44-750): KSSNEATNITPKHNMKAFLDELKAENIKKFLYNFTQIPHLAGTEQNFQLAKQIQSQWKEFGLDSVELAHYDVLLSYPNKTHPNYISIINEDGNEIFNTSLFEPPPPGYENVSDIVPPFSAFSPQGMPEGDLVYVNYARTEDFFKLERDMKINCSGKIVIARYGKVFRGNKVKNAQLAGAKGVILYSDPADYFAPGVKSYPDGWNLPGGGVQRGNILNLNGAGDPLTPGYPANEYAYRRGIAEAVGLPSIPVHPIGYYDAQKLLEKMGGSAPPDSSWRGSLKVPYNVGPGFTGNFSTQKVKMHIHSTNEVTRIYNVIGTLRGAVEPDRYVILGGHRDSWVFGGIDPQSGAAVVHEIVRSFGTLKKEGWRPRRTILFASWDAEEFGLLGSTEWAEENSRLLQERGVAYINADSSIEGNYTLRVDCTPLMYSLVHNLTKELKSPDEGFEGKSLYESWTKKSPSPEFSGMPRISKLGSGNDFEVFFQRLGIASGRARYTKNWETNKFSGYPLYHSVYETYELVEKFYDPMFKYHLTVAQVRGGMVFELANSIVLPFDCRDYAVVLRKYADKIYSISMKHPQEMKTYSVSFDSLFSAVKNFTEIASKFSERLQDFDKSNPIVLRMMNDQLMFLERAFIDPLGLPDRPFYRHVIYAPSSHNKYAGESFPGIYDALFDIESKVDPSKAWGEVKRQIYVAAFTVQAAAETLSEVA

Question: `Cc1onc(O)c1C[C@H](N)C(=O)O` was tested. Which IC50 did it give?
Answer: Its IC50 is over 10 mM.

Source: BindingDB's records for doi:10.1021/jm070133w (Nci-Fcrdc, 2007)
